Consider three compounds from patent publication US10143678B1, “Method of treatment of preventing hyperglycemia complications” (Sunway Biotech Co., LTD, priority 2015, dated 2018).

What all share (type): in vivo
Experiment [1] deals with SD rats fed with high fat and fructose diet. In words: Oral glucose tolerance test (OGTT), AUC of blood glucose. Particulars: FIG. 2, vs HFFD group, oral 10 weeks, 1-fold dose mg/kg bw/day: MF 78.06, RMD 104.17, Monascin 0.31 (MS1X), Ankaflavin 0.16 (AK1X), MS-AK 0.31 + 0.16. An excerpt: (§1) The present invention provides a method of treatment of preventing hyperglycemia complications using at least one pharmaceutical made from a red mold product, wherein the red mold product is a red mold rice or a red mold Dioscorea, and the pharmaceutical is an extract obtained from the red mold product. The extract is Monascin, Ankaflavin, or a combination of Monascin and Ankaflavin. […] Moreover, in order to verify the practicability of the method of treatment of preventing hyperglycemia complications proposed by the present invention, a particularly-arranged of animal experiment is completed by inventors. After 1-week pre-feeding, several SD rats are divided into 9 experimental groups for carrying out 10-week animal experiment.

Experiment [2] shares this test system. In words: Liver, kidney and adipose tissue weight after sacrifice. Particulars: HFFD-fed SD rats, oral 10 weeks.
From the text: as §1
Insulin is used for impelling the absorption and utilization of blood glucose in liver, muscle and adipose tissue. Because white adipose tissue (WAT) is used for storing triglycerides (TG) transformed from blood glucose, a large amount of accumulation of adipocytes would cause the occurrence of inflammatory response so as to induce lipolysis action. Therefore, the inflammatory-induced lipolysis action would produce a large amount of glycerin and free fatty acid (FFA), so as to aggravate the production of Hyperglycemia, fatty liver, and high blood ketone. Based on above reasons, the effects provided by the different test samples on liver, kidney, and adipose tissue weight of the rats are needed to be determined.
For carrying out the determination of liver, kidney, and adipose tissue weight, it needs to sacrifice the rats. After sacrificing the rat, blood to be determined is collected from the intraperitoneal of the rat by using syringes, and then the collected blood are disposed into a 2-mL microcentrifuge tube. After staying for 5 minutes, the microcentrifuge tube carrying with blood is treated with a centrifugation process, and then the serum of the blood is stored in an environment with −20° C. After that, the liver, kidney, and adipose tissue are taken out of the rat.

For another experiment, the system named is adiponectin. Kind of experiment: Adiponectin expression in adipose tissue. The settings on record: FIG. 3, vs HFFD group; HFFD-fed SD rats, oral 10 weeks; 1-fold dose mg/kg bw/day: MF 78.06, RMD 104.17, Monascin 0.31 (MS1X), Ankaflavin 0.16 (AK1X), MS-AK 0.31 + 0.16.
From the text: as §1

Experiment [3] has as its system Reactive Oxygen Species (ROS). Kind of experiment: ROS concentration in liver. The settings on record: FIG. 4, vs HFFD group; HFFD-fed SD rats, oral 10 weeks; 1-fold dose mg/kg bw/day: MF 78.06, RMD 104.17, Monascin 0.31 (MS1X), Ankaflavin 0.16 (AK1X), MS-AK 0.31 + 0.16.
From the text: as §1

For a further experiment, the system named is TNF-α. In words: TNF-α expression in adipose tissue. The settings on record: FIG. 5, vs HFFD group; HFFD-fed SD rats, oral 10 weeks; 1-fold dose mg/kg bw/day: MF 78.06, RMD 104.17, Monascin 0.31 (MS1X), Ankaflavin 0.16 (AK1X), MS-AK 0.31 + 0.16.
From the text: as §1

The next experiment concerns GLUT-2. Kind of experiment: GLUT-2 expression in adipose tissue. Particulars: FIG. 6, vs HFFD group; HFFD-fed SD rats, oral 10 weeks; 1-fold dose mg/kg bw/day: MF 78.06, RMD 104.17, Monascin 0.31 (MS1X), Ankaflavin 0.16 (AK1X), MS-AK 0.31 + 0.16.
From the text: as §1

For another experiment, the system named is GLUT-4. In words: GLUT-4 expression in adipose tissue. The settings on record: FIG. 7, vs HFFD group; HFFD-fed SD rats, oral 10 weeks; 1-fold dose mg/kg bw/day: MF 78.06, RMD 104.17, Monascin 0.31 (MS1X), Ankaflavin 0.16 (AK1X), MS-AK 0.31 + 0.16.
From the text: as §1

The next experiment relates to IL-6. Kind of experiment: IL-6 expression in adipose tissue. Particulars: FIG. 8, vs HFFD group; HFFD-fed SD rats, oral 10 weeks; 1-fold dose mg/kg bw/day: MF 78.06, RMD 104.17, Monascin 0.31 (MS1X), Ankaflavin 0.16 (AK1X), MS-AK 0.31 + 0.16.
From the text: as §1
(§2) Please refer to FIG. 8 and FIG. 9, where a statistical bar graph of IL-6 expression in adipose tissue and a statistical bar graph of IL-1β expression in adipose tissue are provided.

The test system of a further experiment is IL-1β. Kind of experiment: IL-1β expression in adipose tissue. The settings on record: FIG. 9, vs HFFD group; HFFD-fed SD rats, oral 10 weeks; 1-fold dose mg/kg bw/day: MF 78.06, RMD 104.17, Monascin 0.31 (MS1X), Ankaflavin 0.16 (AK1X), MS-AK 0.31 + 0.16.
From the text: as §1, §2

The subject of a further experiment is HIF-1α. Kind of experiment: HIF-1α expression in adipose tissue. Particulars: FIG. 10, vs HFFD group; HFFD-fed SD rats, oral 10 weeks; 1-fold dose mg/kg bw/day: MF 78.06, RMD 104.17, Monascin 0.31 (MS1X), Ankaflavin 0.16 (AK1X), MS-AK 0.31 + 0.16.
From the text: as §1

Experiment [4] concerns SD rats fed with high fat and fructose diet. Kind of experiment: Histomorphology of liver slices (fatty liver). Particulars: FIG. 11, vs HFFD group, oral 10 weeks, 1-fold dose mg/kg bw/day: MF 78.06, RMD 104.17, Monascin 0.31 (MS1X), Ankaflavin 0.16 (AK1X), MS-AK 0.31 + 0.16.
From the text: as §1

[5] abbreviates: 1-fold dose mg/kg bw/day: MF 78.06, RMD 104.17, Monascin 0.31 (MS1X), Ankaflavin 0.16 (AK1X), MS-AK 0.31 + 0.16.
Where [6] appears, read: 5-fold dose mg/kg bw/day: Monascin 1.56 (MS5X), Ankaflavin 0.78 (AK5X).

Marks after values point to notes of the source that are not given here.

Consider `CN(C)C(=N)N=C(N)N` [MF, Metformin], for which the “AUC (area under curve) of blood glucose” value in [1] is recorded as “obviously lower”. In addition, in experiment [2] (setting [5]), the Kidney weight is reported as 3.64 ± 0.26^ab; the “Occupying percentage of summation of the weights of peri-adrenal and epididymal adipose tissue in body Fat” value (from here on “Occupying percentage”) is 4.27 ± 1.43^bc %. The “percentage of adiponectin expression in adipose tissue” value with adiponectin is listed as “largely enhanced”. Moreover, in experiment [3], the “ROS level in liver” value was “largely lowered”. Also, the “percentage of TNF-α expression in adipose tissue” value in the experiment on TNF-α is “largely reduced”. In the experiment with GLUT-2, the “percentage of GLUT-2 expression in adipose tissue” value is “largely enhanced”. The “percentage of GLUT-4 expression in adipose tissue” value in the experiment with GLUT-4 is “largely enhanced”. Moreover, the “percentage of IL-6 expression in adipose tissue” value in the experiment with IL-6 is on record as “largely lowered”. In the experiment with IL-1β, the “percentage of IL-1β expression in adipose tissue” value is reported as “largely lowered”. In the experiment on HIF-1α, the “percentage of HIF-1α expression in adipose tissue” value is listed as “largely lowered”. Besides, in experiment [4], the “formation of fatty liver” value is on record as “alleviated or solved”.

On to `C/C=C/C1=CC2=C(CO1)C(=O)[C@]1(C)OC(=O)[C@H](C(=O)CCCCC)[C@H]1C2` [Monascin], for which, in experiment [2] (setting [5]), the Kidney weight is recorded as 3.61 ± 0.20^ab; the “Occupying percentage” value is listed as 5.12 ± 0.84^bc %. For the same compound, in experiment [2] (setting [6]), the Kidney weight is on record as 3.71 ± 0.40^ab; the “Occupying percentage” value is 4.97 ± 0.80^bc %.

`C/C=C/C1=CC2=C(CO1)C(=O)[C@]1(C)OC(=O)[C@H](C(=O)CCCCCCC)[C@H]1C2` [Ankaflavin]: in experiment [2] (setting [5]), the Kidney weight was 3.72 ± 0.31^ab; the “Occupying percentage” value is 4.32 ± 0.59^b %. Also, in experiment [2] (setting [6]), the Kidney weight is reported as 3.55 ± 0.29^ab; the “Occupying percentage” value is reported as 4.30 ± 0.53^b %.
